Laboratory results reported in patent US9695155B2, “Herbicidal substituted pyrimidinyloxy benzene compounds” (E. I. DU PONT DE NEMOURS AND COMPANY, priority 2013, dated 2017).

Columns and labels:
[1] = system: yellow nutsedge; assay: Test E preemergence; format: in vivo, Cyperus esculentus; details: for Nutsedge, Yellow plant response rating: scale 0 to 100 (0 no effect, 100 complete control)
Method in brief: (§1)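 Test chemicals formulated in a non-phytotoxic solvent mixture containing a surfactant were applied preemergence to seeds in silt loam soil or postemergence to plants at the 1- to 4-leaf stage in potting mix. After 14 to 21 days in a greenhouse, injury was visually rated against controls on a 0-100 scale (0 = no effect, 100 = complete control).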

[2] = system: rice; assay: Test C flooded paddy test; format: in vivo, Oryza sativa; details: Flood, scale 0 to 100 (0 no effect, 100 complete control), 13 to 15 days
Method in brief: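 Under a constant 3 cm flood, test compounds went directly into the paddy water. Following 13 to 15 days of greenhouse growth, treated species and controls were compared by eye.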

[3] = system: dayflower; assay: Test E preemergence; format: in vivo, Commelina virginica; details: for Dayflower, VA plant response rating: scale 0 to 100 (0 no effect, 100 complete control)
Method in brief: as §1

[4] = system: fall panicum; assay: Test E preemergence; format: in vivo, Panicum dichotomiflorum; details: for Panicum, Fall plant response rating: scale 0 to 100 (0 no effect, 100 complete control)
From the text: (§2) Seeds of plant species selected from corn (Zea mays), soybean (Glycine max), velvetleaf (Abutilon theophrasti), lambsquarters (Chenopodium album), wild poinsettia (Euphorbia heterophylla), palmer pigweed (Amaranthus palmeri), waterhemp (common waterhemp, Amaranthus rudis), surinam grass (Brachiaria decumbens), large (Lg) crabgrass (Digitaria sanguinalis), Brazilian crabgrass (Digitaria horizontalis), fall panicum (Panicum dichotomiflorum), giant foxtail (Setaria faberii), green foxtail (Setaria viridis), goosegrass (Eleusine indica), johnsongrass (Sorghum halepense), ragweed (common ragweed, Ambrosia elatior), barnyardgrass (Echinochloa crus-galli), sandbur (southern sandbur, Cenchrus echinatus), arrowleaf sida (Sida rhombifolia), Italian ryegrass (Lolium multiflorum), dayflower (Virginia (VA) dayflower, Commelina virginica), field bindweed (Convolvulus arvensis), morningglory (Ipomoea coccinea), nightshade (eastern black nightshade, Solanum ptycanthum), kochia (Kochia scoparia), yellow nutsedge (Cyperus esculentus), cocklebur (common cocklebur, Xanthium strumarium), smartweed (ladysthumb smartweed, and hairy beggarticks (Bidens pilosa), were planted into a silt loam soil and treated preemergence with test chemicals formulated in a non-phytotoxic solvent mixture which included a surfactant.
(§3) At the same time, plants from these crop and weed species and also horseweed (Canada horseweed, Conyza canadensis), waterhemp_RES1, (ALS & Triazine resistant common waterhemp, Amaranthus rudis), and waterhemp_RES2, (ALS & HPPD resistant common waterhemp, Amaranthus rudis) were planted in pots containing Redi-Earth® planting medium (Scotts Company, 14111 Scottslawn Road, Marysville, Ohio 43041) comprising spaghnum peat moss, vermiculite, wetting agent and starter nutrients were treated with postemergence applications of test chemicals formulated in the same manner. Plants ranged in height from 2 to 18 cm for postemergence treatments (1- to 4-leaf stage). Treated plants and controls were maintained in a greenhouse for 14 to 21 days, after which time all species were compared to controls and visually evaluated. Plant response ratings, summarized in Table E, are based on a scale of 0 to 100 where 0 is no effect and 100 is complete control. A dash (-) response means no test result.

[5] = system: hairy beggarticks; assay: Test E preemergence; format: in vivo, Bidens pilosa; details: for Beggarticks plant response rating: scale 0 to 100 (0 no effect, 100 complete control)
Method in brief: as §1

[6] = system: windgrass; assay: Test D preemergence; format: in vivo, Apera spica-venti
From the text: Seeds of plant species selected from bluegrass (annual bluegrass, Poa annua), blackgrass (Alopecurus myosuroides), canarygrass (littleseed canarygrass, Phalaris minor), chickweed (common chickweed, Stellaria media), galium (catchweed bedstraw, Galium aparine), bromegrass, downy (downy bromegrass, Bromus tectorum), field poppy (Papaver rhoeas), field violet (Viola arvensis), green foxtail (Setaria viridis), deadnettle (henbit deadnettle, Lamium amplexicaule), Italian ryegrass (Lolium multiflorum), kochia (Kochia scoparia), lambsquarters (Chenopodium album), oilseed rape (Brassica napus), pigweed (Amaranthus retroflexus), chamomile (scentless chamomile, Matricaria inodora), Russian thistle (Salsola kali), speedwell (bird's-eye speedwell, Veronica persica), spring barley (Hordeum vulgare), spring wheat (Triticum aestivum), wild buckwheat (Polygonum convolvulus), wild mustard (Sinapis arvensis), wild oat (Avena fatua), wild radish (Raphanus raphanistrum), windgrass (Apera spica-venti), winter barley (Hordeum vulgare), and winter wheat (Triticum aestivum) were planted into a silt loam soil and treated preemergence with test chemicals formulated in a non-phytotoxic solvent mixture which included a surfactant.
At the same time, these species were planted in pots containing Redi-Earth® planting medium (Scotts Company, 14111 Scottslawn Road, Marysville, Ohio 43041) comprising spaghnum peat moss, vermiculite, wetting agent and starter nutrients and treated with postemergence applications of the test chemicals formulated in the same manner. Plants ranged in height from 2 to 18 cm (1- to 4-leaf stage). Treated plants and controls were maintained in a controlled growth environment for 7 to 21 days after which time all species were compared to controls and visually evaluated. Plant response ratings, summarized in Table D, are based on a scale of 0 to 100 where 0 is no effect and 100 is complete control. A dash (-) response means no test result.

[7] = system: soybean; assay: Test E postemergence; format: in vivo, Glycine max
From the text: as §2, §3

[8] = system: fall panicum; assay: Test E postemergence; format: in vivo, Panicum dichotomiflorum
Method in brief: as §1

[9] = 125 g ai/ha, scale 0 to 100, 0 no effect, 100 complete control
[10] = preemergence, 125 g ai/ha, scale 0 to 100, 0 no effect, 100 complete control
[11] = 250 g ai/ha, scale 0 to 100, 0 no effect, 100 complete control
[12] = Postemergence, 31 g ai/ha, scale 0 to 100
[13] = Postemergence, 62 g ai/ha, scale 0 to 100
[14] = Postemergence, 125 g ai/ha, scale 0 to 100
[15] = Postemergence, 250 g ai/ha, scale 0 to 100
[16] = postemergence, 16 g ai/ha, scale 0 to 100, 0 no effect, 100 complete control
[17] = preemergence, 250 g ai/ha, scale 0 to 100, 0 no effect, 100 complete control
[18] = 8 g ai/ha, scale 0 to 100, 0 is no effect, 100 is complete control

SMILES | Nutsedge, Yellow plant response rating ([1]; 31 g ai/ha) | Nutsedge, Yellow plant response rating ([1]; 62 g ai/ha) | Plant response rating, Nutsedge, Yellow [1, 9] | Plant response rating, Rice ([2]; 31 g ai/ha) | Plant response rating, Rice ([2]; 62 g ai/ha) | Plant response rating, Rice ([2]; 125 g ai/ha) | Plant response rating, Rice ([2]; 250 g ai/ha) | Dayflower, VA plant response rating ([3]; 16 g ai/ha) | Dayflower, VA plant response rating ([3]; 31 g ai/ha) | Dayflower, VA plant response rating ([3]; 62 g ai/ha) | Plant response rating, Dayflower, VA [3, 9] | Panicum, Fall plant response rating ([4]; 31 g ai/ha) | Panicum, Fall plant response rating ([4]; 62 g ai/ha) | Plant response rating, Panicum, Fall [4, 9] | Beggarticks plant response rating ([5]; 16 g ai/ha, preemergence) | Beggarticks plant response rating ([5]; 31 g ai/ha, preemergence) | Beggarticks plant response rating ([5]; 62 g ai/ha, preemergence) | Plant response rating, Beggarticks [5, 10] | Plant response rating, Nutsedge, Yellow [1, 11] | Plant response rating, Soybean [7, 13] | other results
Fc1cnc(Oc2cccc(C(F)F)c2-n2cc(C(F)(F)F)cn2)nc1 [Compound 164] | 0 | 0 | 20 | 0 | 0 | 0 | 0 | 0 | 20 | 65 | 90 | 0 | 30 | 98 | 0 | 0 | 20 | 20 |  |  | 
Fc1cccc(Oc2ncc(Cl)cn2)c1-n1cc(C(F)F)nn1 [Compound 141, 5-chloro-2-[2-[4-(difluoromethyl)-1H-1,2,3-triazol-1-yl]-3-fluorophenoxy]pyrimidine] |  |  |  | 0 | 0 | 40 | 60 |  |  |  |  |  |  |  |  |  |  |  |  |  | pest or weed control at 16 g/ha ([6]; Apera spica-venti, pre-emergence, 16 g ai/ha, scale 0 (no effect) to 100 (complete control), read-out: Plant response rating, Windgrass): 35%; pest or weed control at 31 g/ha ([6]; Apera spica-venti, pre-emergence, 31 g ai/ha, scale 0 (no effect) to 100 (complete control), read-out: Plant response rating, Windgrass): 70%; pest or weed control at 62 g/ha ([6]; Apera spica-venti, pre-emergence, 62 g ai/ha, scale 0-100, read-out: Plant response rating, Windgrass): 85%; pest or weed control at 125 g/ha ([6]; Apera spica-venti, pre-emergence, 125 g ai/ha, scale 0-100, read-out: Plant response rating, Windgrass): 100%
N#Cc1cnn(-c2c(C#N)cccc2Oc2ncc(Cl)cn2)c1 [Compound 200] | 0 | 0 | 40 | 0 | 0 | 0 | 0 | 0 | 35 | 65 | 65 | 75 | 95 | 100 | 0 | 10 | 35 | 75 | 70 | 95 | Plant response rating, Soybean [7, 12]: 95; Plant response rating, Soybean [7, 14]: 95; Plant response rating, Soybean [7, 15]: 98; Plant response rating, Soybean [7, 16]: 95; Plant response rating, Dayflower, VA [3, 11]: 85; Plant response rating, Panicum, Fall [4, 11]: 100; Plant response rating, Panicum, Fall [8, 12]: 10; Plant response rating, Panicum, Fall [8, 13]: 20; Plant response rating, Panicum, Fall [8, 14]: 50; Plant response rating, Panicum, Fall [8, 15]: 50; Plant response rating, Panicum, Fall [8, 16]: 10; Plant response rating, Beggarticks [5, 17]: 95
N#Cc1cccc(Oc2ncc(Cl)cn2)c1-n1cc(Cl)cn1 [Compound 72] | 0 | 0 | 25 |  |  |  |  | 0 | 0 | 35 | 65 | 65 | 98 | 100 | 0 | 0 |  | 5 | 50 | 95 | Nutsedge, Yellow plant response rating ([1]; 16 g ai/ha): 0; Plant response rating, Soybean [7, 14]: 95; Plant response rating, Dayflower, VA [3, 11]: 95; Panicum, Fall plant response rating ([4]; 16 g ai/ha): 0; Plant response rating, Panicum, Fall [4, 11]: 100; Plant response rating, Panicum, Fall [8, 13]: 10; Plant response rating, Panicum, Fall [8, 14]: 10; Plant response rating, Beggarticks ([5]; Preemergence, 62 g ai/ha, scale 0 to 100, 0 no effect, 100 complete control): 5; Plant response rating, Beggarticks [5, 17]: 30
FC(F)c1cccc(Oc2ncc(Cl)cn2)c1-n1cc(C(F)(F)F)cn1 [Compound 170] | 20 | 30 | 40 |  |  |  |  | 30 | 30 | 80 | 95 | 20 | 98 | 100 | 0 | 0 | 0 | 0 |  |  | Plant response rating, Nutsedge, Yellow [1, 18]: 0; Plant response rating, Dayflower, VA [3, 18]: 0; Plant response rating, Panicum, Fall [4, 18]: 0; Plant response rating, Beggarticks ([5]; 8 g ai/ha, preemergence, scale 0 to 100, 0 is no effect, 100 is complete control): 0
FCc1cccc(Oc2ncc(Cl)cn2)c1-n1cc(I)cn1 [Compound 245] |  |  |  |  |  |  |  |  |  |  |  |  |  |  |  |  |  |  |  |  | Plant response rating, Windgrass ([6]; 16 g ai/ha, scale 0 (no effect) to 100 (complete control)): 5; Plant response rating, Windgrass ([6]; 31 g ai/ha, scale 0 (no effect) to 100 (complete control)): 15; Plant response rating, Windgrass ([6]; 125 g ai/ha, scale 0-100): 60
